Measurements taken from patent publication US20110257211A1, “Small-Molecule Choline Kinase Inhibitors as Anti-Cancer Therapeutics” (ADVANCED CANCER THERAPEUTICS, LLC, priority 2010, published 2011).
Read-outs that look alike come from different tables or passages of the source. Blank lines part the entries; values can stand above or below the compound they belong to.

Key:
[1] = target: T1, Choline Kinase α (CKα) (Homo sapiens, UniProt P35790); experiment: Inhibition of Choline Kinase α, kinase activity assay; format: biochemical; conditions: recombinant CKα expressed in E. coli
T1 construct: GST; made in house; host or cells: E. coli BL21(DE3)
T1 sequence (P35790 whole entry): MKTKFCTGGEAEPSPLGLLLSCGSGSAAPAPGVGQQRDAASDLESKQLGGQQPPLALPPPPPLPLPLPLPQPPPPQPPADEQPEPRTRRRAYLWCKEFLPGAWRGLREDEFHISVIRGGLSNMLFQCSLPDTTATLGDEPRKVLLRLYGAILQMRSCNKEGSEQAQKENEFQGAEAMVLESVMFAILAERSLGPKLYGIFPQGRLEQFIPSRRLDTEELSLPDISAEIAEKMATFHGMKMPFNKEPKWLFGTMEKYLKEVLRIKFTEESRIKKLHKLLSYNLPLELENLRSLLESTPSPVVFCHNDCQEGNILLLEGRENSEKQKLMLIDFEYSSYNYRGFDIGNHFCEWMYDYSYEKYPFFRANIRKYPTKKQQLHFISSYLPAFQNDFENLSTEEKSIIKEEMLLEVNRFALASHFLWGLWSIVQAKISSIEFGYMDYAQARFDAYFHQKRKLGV
Experimental: CKα was prepared by expression in E. coli (Bl21(DE3)) and purified by GST column and column chromatography. […] The recombinant protein was pure and active as determined by the results of a kinase activity assay.

[2] = Microsomal stability in human liver microsomes; format: in vitro ADME
Excerpt: Microsomal stability in vitro in different biologic media and species is ascertained when screening compounds to evaluate the rate at which a compound undergoes metabolism.

[3] = tested on: HT-29; experiment: Inhibition of cell proliferation (HT-29); format: cell-based; conditions: Homo sapiens, Table 2B, Colon, average, read-out: IC50 Aver, HT-29
[4] = tested on: DU145; experiment: Inhibition of cell proliferation (DU145); format: cell-based; conditions: Homo sapiens, DU-145; Table 2B; Prostate; average; read-out: IC50 Aver, DU145
[5] = tested on: MKN-45; experiment: Inhibition of cell proliferation (MKN-45); format: cell-based; conditions: Homo sapiens, Table 2B, Gastric, average, read-out: IC50 Aver, MKN-45
[6] = tested on: U937; experiment: Inhibition of cancer cell proliferation, Alamar Blue assay (U937); format: cell-based; conditions: Homo sapiens, U-937
Experimental: (§1) The ability of the compounds described herein to kill or inhibit the proliferation of cancer cells was measured using the Alamar Blue assay using a 72 hours exposure. Results for different cancer cell lines are shown in, the Table 2 below (hematopoietic cell lines U937 and K562; MDA-MB-231 a breast cancer cell line; and NCI-H82 and Calu-6, two lung cancer cell lines): […]

[7] = Permeability in Caco2 cells; format: in vitro ADME; conditions: human, Caco-2, Caco2 cells
Excerpt: (§2) The determination of the permeability in Caco2 cells is widely used in screening compounds to assess intestinal drug transport and predict absorption rates.

[8] = tested on: Caco2 cells; experiment: Permeability in Caco2 cells; format: in vitro ADME; conditions: Caco2
Excerpt: as §2

[9] = tested on: H209; experiment: Inhibition of cell proliferation (H209); format: cell-based; conditions: Homo sapiens, NCI-H209; Table 2B; Lung; average; read-out: IC50 Aver, H209
[10] = tested on: NCI-H2122; experiment: Inhibition of cell proliferation (NCI-H2122); format: cell-based; conditions: Homo sapiens, Table 2B, Lung, average, read-out: IC50 Aver, NCI-H2122
[11] = tested on: Hep G2; experiment: Inhibition of cell proliferation (Hep G2); format: cell-based; conditions: Homo sapiens, HepG2; Table 2B; Liver; average; read-out: IC50 Aver, Hep G2
[12] = tested on: Jurkat; experiment: Inhibition of cell proliferation (Jurkat); format: cell-based; conditions: Homo sapiens, Table 2B, Leukemia, average, read-out: IC50 Aver, Jurkat
[13] = tested on: A431; experiment: Inhibition of cell proliferation (A431); format: cell-based; conditions: Homo sapiens, A-431; Table 2B; epidermi; average; read-out: IC50 Aver, A431
[14] = Pharmacokinetics in Balbc mice; format: in vivo; conditions: Balbc male mice, IV or IP, 5 mg/kg or 10 mg/kg, 5% DMSO/90% Captisol solution
Experimental: The pharmacokinetic parameters for several compounds listed above were determined in mice following IV (intravenous) or IP (intraperitoneal) administration. Briefly, six Balbc male mice 7 to 8 weeks old were used for each study. A dose of 5 mg/kg or 10 mg/kg was administered using a 5% DMSO/90% Captisol (20% in water) solution for ACT-CK-050 or FFF for ACT-CK-154. Blood samples were collected at different intervals. Plasma samples were extracted and analyzed using an LC-MS/MS method. Results are represented in FIGS. 1 and 2.

[15] = tested on: K562; experiment: Inhibition of cancer cell proliferation, Alamar Blue assay (K562); format: cell-based; conditions: Homo sapiens
Experimental: as §1

[16] = tested on: Hela; experiment: Inhibition of cell proliferation (Hela); format: cell-based; conditions: Homo sapiens, Table 2B, Cervical, average, read-out: IC50 Aver, Hela
[17] = tested on: NCI-H82; experiment: Inhibition of cancer cell proliferation, Alamar Blue assay (NCI-H82); format: cell-based; conditions: Homo sapiens
Experimental: as §1

[18] = tested on: PC3; experiment: Inhibition of cell proliferation (PC3); format: cell-based; conditions: Homo sapiens, PC-3; Table 2B; Prostate; average; read-out: IC50 Aver, PC3
[19] = tested on: Calu-6; experiment: Inhibition of cancer cell proliferation, Alamar Blue assay (Calu-6); format: cell-based; conditions: Homo sapiens
Experimental: as §1

[20] = tested on: Colo-205; experiment: Inhibition of cell proliferation (Colo-205); format: cell-based; conditions: Homo sapiens, Table 2B, Colorectal, average, read-out: IC50 Aver, Colo-205
[21] = tested on: HCT-116; experiment: Inhibition of cell proliferation (HCT-116); format: cell-based; conditions: Homo sapiens, Table 2B, Colon, average, read-out: IC50 Aver, HCT-116
[22] = tested on: MDA-MB-231; experiment: Inhibition of cancer cell proliferation, Alamar Blue assay (MDA-MB-231); format: cell-based; conditions: Homo sapiens
Experimental: as §1

[23] = comparison of A-B and B-A values

SMILES: CCOc1ccc(-c2nnc(SCC(=O)Nc3cccc(OC)c3)[nH]2)cc1 [ACT-CK-157, 2-[5-(4-Ethoxy-phenyl)-4H-[1,2,4]triazol-3-ylsulfanyl]-N-(3-methoxy-phenyl)-acetamide]
IC50 [1]: 50000 nM

SMILES: CCOc1ccc(-c2nnc(SCC(=O)N(C)c3cc(C)cc(C)c3)[nH]2)cc1 [ACT-CK-153, N-(3,5-Dimethyl-phenyl)-2-[5-(4-ethoxy-phenyl)-4H-[1,2,4]triazol-3-ylsulfanyl]-N-methyl-acetamide]
% Metabolized (mean) [2]: 99% | IC50 [1]: 30000 nM

SMILES: CCOc1ccc(-c2nnc(SCC(=O)NC3CC(C)(C)NC(C)(C)C3)[nH]2)cc1 [ACT-CK-170, 2-[5-(4-Ethoxy-phenyl)-4H-[1,2,4]triazol-3-ylsulfanyl]-N-(2,2,6,6-tetramethyl-piperidin-4-yl)-acetamide]
IC50 [1]: > 100000 nM

These reach a lower IC50 [1]. Values come first.

IC50 [3]: 89700 nM | % Metabolized (mean) [2]: 99% | IC50 [4]: 597 nM | IC50 [5]: 47 nM | IC50 ([6]; Table 2A, Alamar Blue, 72 hours exposure, read-out: IC50s U937): 60 nM | IC50 ([6]; Table 2B, lymphoma, average, read-out: IC50 Aver, U937): 63 nM | Papp A→B ([7]; apical to basal): 46.1 ×10⁻⁶ cm/s | Papp B→A ([7]; basal to apical): 16.2 ×10⁻⁶ cm/s | Pgp substrate (in words) [8, 23]: not a Pgp substrate | active efflux (in words) [8, 23]: not actively effluxed out the cells | permeability properties (in words) ([8]; high permeability determined as Papp>10×10^−6 cm/s): high permeability | IC50 [9]: 367 nM | IC50 [10]: 173 nM | IC50 [12]: 10400 nM | IC50 [13]: 117 nM | Clearance (in words) [14]: cleared too quickly | Plasma levels (in words) [14]: too low | IC50 ([15]; Table 2A, Alamar Blue, 72 hours exposure, read-out: IC50s K562): 40 nM | IC50 ([15]; Table 2B, Leukemia, average, read-out: IC50 Aver, K562): 43 nM | IC50 [16]: 22 nM | IC50 [1]: 20000 nM | IC50 ([17]; Table 2A, Alamar Blue, 72 hours exposure, read-out: IC50s NCI-H82): 90 nM | IC50 ([17]; Table 2B, Lung, average, read-out: IC50 Aver, NCI-H82): 96 nM | IC50 [18]: 240 nM | IC50 ([19]; Table 2A, Alamar Blue, 72 hours exposure, read-out: IC50s Calu-6): 60 nM | IC50 ([19]; Table 2B, Lung, average, read-out: IC50 Aver, Calu-6): 57 nM | IC50 [20]: 240 nM | IC50 [21]: 523 nM | IC50 ([22]; Table 2A, Alamar Blue, 72 hours exposure, read-out: IC50s MDA-MB231): 18500 nM | IC50 ([22]; Table 2B, Breast, average, read-out: IC50 Aver, MDA-MB-231): 18500 nM
SMILES: CCOc1ccc(-c2nnc(SCC(=O)Nc3cc(C)cc(C)c3)[nH]2)cc1 [ACT-CK-050, N-(3,5-Dimethyl-phenyl)-2-[5-(4-ethoxy-phenyl)-4H-[1,2,4]triazol-3-ylsulfanyl]-acetamide]
IC50 [11]: 163 nM

IC50 [1]: 18000 nM
SMILES: CCOc1ccc(-c2nnc(SCC(=O)Nc3cc(OC)cc(OC)c3)[nH]2)cc1 [ACT-CK-109, N-(3,5-Dimethoxy-phenyl)-2-[5-(4-ethoxy-phenyl)-4H-[1,2,4]triazol-3-ylsulfanyl]-acetamide]
